From US7737250B2, “Peptides for treating axonal damage, inhibition of neurotransmitter release and pain transmission, and blocking calcium influx in neurons” (Mount Sinai School of Medicine of New York University, priority 2003, dated 2010)

Legend:
[1] = test system: Cav2.2 current; assay: Whole-cell calcium current recording in DRG neurons; format: cell-based, chick; conditions: 1.4 ng/ml peptide in recording pipette; after 2 minutes of recording
Protocol: Electrophysiology: Standard tight seal, whole-cell recording methods [Hamill et al.,1981 Pflugers Arch. 381, 85-10] were employed. Cells were incubated in an external solution containing 133 mM NaCl, 1 mM CaCl2, 0.8 mM MgCl2, 25 mM HEPES, 12.5 mM NaOH, 5mM glucose, 10 mM tetraethylammonium chloride, […] (pH 7.4). Experiments were performed on the stage of an inverted microscope. Recording pipettes were fabricated from microhemnatocrit tubing (Fisher) and filled with an internal recording solution containing 150 mM CsCl, 5 BAPTA, 5 MgATP, 10 HEPES (pH 7.2). All salts were obtained from Fluka. Initial pipette resistances were 0.8-1.2 MΩ. […]
Electrophysiology Data Analysis—Data was filtered at 3 kHz, acquired at 10-20 kHz and analyzed using PulseFit (HEKA) and IgorPro (WaveMetrics) on a Macintosh G3 computer. […] Such conditioning pulses have no effect on control currents recorded in the absence of GABA. During the application of the transmitter, test pulse currents measured before and after the conditioning pulse are subtracted to yield the voltage-dependent component. Test pulses measured following the conditioning pulse are subtracted from control currents (measured in the absence of GABA) to yield the voltage-independent component.

[2] = test system: Cav2.2 channels; assay: Calcium channel distribution by confocal indirect immunofluorescence in DRG neurons; format: cell-based, chicken; conditions: DRG neurons pretreated with peptide 1.4 μg/ml, 30 min
Protocol: Antibodies: Primary antibody: rabbit anti-pan α1 binds Ca channel (1:200 dilution, [1.5 μg/ml) [Alomone Labs; Jerusalem, Israel]. Secondary antibodies: (1:200 dilution, 10 μg/ml): tetramenthylrhodamine conjugated goat anti-rabbit IgG (H+L) [Molecular Probes; Eugene, OR]
Dorsal root ganglia were dissected from 11 to 12 day old embryos, incubated for 30 min in saline containing nominal Ca 2^+ and Mg 2^+, and 0.05% collagenase (type A, Boehringer Mannheim). Ganglia were dissociated mechanically into single cells by trituration in culture medium containing Dulbecco's modified Eagle's medium supplemented with 10% horse serum, 5% chicken embryo extract, penicillin, streptomycin, glutamine, and nerve growth factor. Cells were plated at a density of ˜50,000 cells/collagen-coated 35 mm tissue culture dish and studied between 1 and 3 days in vitro.
Immunohistochemistry: Cultures grown on poly-L-lysine cover glass slips were exposed to saline or 100 mM NE (norepinephrine), fixed and permeabilized in methanol at −20° C. for 15-minutes or 20 second (for residual experiment) followed by 3×5-min washes in PHEM Buffer [60 mM PIPES, 25 mM HEPES, 10 mM EGTA, 2 mM MgCl2, pH 6.9]. Cells were alternatively fixed with 4% paraformaldehyde in PHEM buffer, pH 6.9 for 20-min, washed 3×3-min with PHEM buffer and permeabilization with 0.1% Triton X-100/PHEM buffer for 3-min. Blocking was performed using 5% BSA in PHEM Buffer for 1-h at 4 C. Following overnight incubation with primary antibody in 1% BSA and 1% normal goat sera in PHEM Buffer at 4 C. After washes with PHEM Buffer, cover slips were incubated with fluorophore-conjugated secondary antibodies in 1% BSA PHEM Buffer for 1.5 hours at room temperature in the dark. […]
Images of fixed cells were obtained with a pinhole setting of 0.95 using a UV 100× 1.4NA oil Leica objective lens and an optical zoom between 1.4 and 2× at slow acquisition speed with 4× frame averaging accumulation. The number of sections was calculated by the Leica TCS software based on acquisition of sections at 240 nm intervals in the Z-plane. […]

[3] = test system: secretion of Substance P from DRG neurons; assay: Substance P secretion, single-cell immunoblot assay; format: cell-based, chick; conditions: DRG neurons pre-incubated with peptide 1.4 μg/ml for 1 hour
Protocol: Secretion Assay: Secretion of substance P was analyzed using the single-cell immunoblot method adapted from Huang and Neher (Huang, L. Y., Neher, E. (1996) Neuron. 17, 135-45.). Briefly, polyvinylidene difluoride transfer membranes (Immobilon P brand from Millipore) were cut to […] and placed in a 6-well plate. Membranes were pre-wetted with methanol for 20 s, rinsed with distilled water and allowed to equilibrate in test solution for >1 hr. In parallel, DRG cells plated were incubated with media containing AP-YF or AP-Scr (1.4 μg/ml) for 1 hour. This media was removed, and replaced with 70 μl of test solution. The membranes were then placed on top of the cells, and allowed to incubate at 37° C. in a humidified CO2 incubator for 30 min. The membranes were then carefully removed from the cells and allowed to dry completely and fixed with powdered paraformaldehyde at 80° C. for 1 hr. Fixed membranes were rinsed in PBS (1 mM KH2PO4, 10 mM Na2HPO4, 137 mM NaCl, 2.7 mM KCl) containing 1% Triton X-100 (PBS-T) to remove excess paraformaldehyde, and blocked with PBS-T containing 3% fetal bovine serum (FBS) for 30 min at room temperature. The membranes were incubated with anti-substance P antibody (Santa Cruz) at 1:200 dilution in PBS-T with 1% FBS overnight in 37° C. incubator. The next day the membranes were developed with a peroxidase/diamninobenzidine (DAB) reaction using the ABC staining kit from Santa Cruz Biotechnology. Images were taken using a CCD camera, and analyzed using Photoshop and NIH image software. Data were plotted by assigning an upper and lower limit of gray values and plotting % of cells at a range within those limits. By plotting graphs as % of cells in a dynamic range, multiple experimental runs were pooled.

Sequence | inhibition of calcium current [1] | Cav2.2 channel distribution (plasma membrane vs cytoplasm) [2] | high K^+-induced secretion of Substance P [3]
RQIKIWFQNRRMKWKKQFNEDGSFIGQF [AP-YF] | 83+17% | induces removal of Cav2.2 channels | blocks high K^+-induced secretion
RQIKIWFQNRRMKWKKFQGIFSGDENFQ [AP-Scramble] | no significant effect | no effect | did not affect secretion significantly
